# According to patent US20030129629A1, “Methods and compositions for the identification, assessment, prevention, and therapy of human cancers” (Millennium Pharmaceuticals, Inc., priority 2000, published 2003):
# Where two headings read alike, the source gives them in different places.
# Key:
# [1] = tested on: 60 cancer cell lines (NCI 60 cancer cell line series); conditions: cited from earlier work
# [2] = tested on: 60 cancer cell lines (NCI 60 cancer cell line series); assay: NCI-DTP in vitro cancer screen, sulforhodamine B (SRB) growth inhibition, 48 hour exposure; format: cell-based, human
# Outline: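 Potency is given as mean −log{GI50} from dose–response curves, manually binned into Low, Medium or High sensitivity. Sixty NCI-DTP tumour lines were treated 48 h with a duplicate, five-dose, ten-fold dilution series, and growth read by SRB staining of cell mass.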
smiles,measurement,setting,value
COc1cccc2c1C(=O)c1c(O)c3c(c(O)c1C2=O)C[C@@](O)(C(=O)CO)C[C@@H]3OC1CC(N)CC(C)O1.Cl (some centres unmarked) [Deoxydoxorubicin],−Log (GI50),[1]; CNS SF-268 CL12014,7.3
same,−Log (GI50),[1]; CNS U251(I) CL12009,7.6
same,−Log (GI50),[1]; Colon HT29(I) CL4001,7.5
same,−Log (GI50),[1]; Melanoma UACC-62 CL10020,7.6
same,−Log (GI50),[1]; NSCLC HOP-92 CL1029,7.4
same,−Log (GI50),[1]; Ovarian SK-OV-3 CL6011,7.3
same,−Log (GI50),[1]; Prostate DU-145 CL11003,7.6
same,"classification of cell line as Low(1), Medium(2), High(3) sensitivity to compound",[2]; Breast BT-549 CL5013,2
same,"classification of cell line as Low(1), Medium(2), High(3) sensitivity to compound",[2]; Breast MCF7/ADRr CL5002,1
same,"classification of cell line as Low(1), Medium(2), High(3) sensitivity to compound",[2]; Breast MDA-N CL5012,2
same,"classification of cell line as Low(1), Medium(2), High(3) sensitivity to compound",[2]; CNS SF-268 CL12014,2
same,"classification of cell line as Low(1), Medium(2), High(3) sensitivity to compound",[2]; CNS SF-295 CL12015,2
same,"classification of cell line as Low(1), Medium(2), High(3) sensitivity to compound",[2]; CNS SF-539 CL12016,2
same,"classification of cell line as Low(1), Medium(2), High(3) sensitivity to compound",[2]; CNS SNB-19 CL12002,2
same,"classification of cell line as Low(1), Medium(2), High(3) sensitivity to compound",[2]; CNS SNB-75(I) CL12005,2
same,"classification of cell line as Low(1), Medium(2), High(3) sensitivity to compound",[2]; CNS U251(I) CL12009,2
same,"classification of cell line as Low(1), Medium(2), High(3) sensitivity to compound",[2]; Colon COLO-250 CL4010,2
same,"classification of cell line as Low(1), Medium(2), High(3) sensitivity to compound",[2]; Colon HCT-15 CL4015,1
same,"classification of cell line as Low(1), Medium(2), High(3) sensitivity to compound",[2]; Colon HT29(I) CL4001,2
same,"classification of cell line as Low(1), Medium(2), High(3) sensitivity to compound",[2]; Colon KM12 CL4017,2
same,"classification of cell line as Low(1), Medium(2), High(3) sensitivity to compound",[2]; Leukemia CCRF-CEM(I) CL7003,2
same,"classification of cell line as Low(1), Medium(2), High(3) sensitivity to compound",[2]; Leukemia K562(I) CL7005,2
same,"classification of cell line as Low(1), Medium(2), High(3) sensitivity to compound",[2]; Leukemia RPMI-8226(I) CL7010,2
same,"classification of cell line as Low(1), Medium(2), High(3) sensitivity to compound",[2]; Leukemia SR CL7019,3
same,"classification of cell line as Low(1), Medium(2), High(3) sensitivity to compound",[2]; Melanoma LOX IMVI CL10001,2
same,"classification of cell line as Low(1), Medium(2), High(3) sensitivity to compound",[2]; Melanoma M14 CL10014,2
same,"classification of cell line as Low(1), Medium(2), High(3) sensitivity to compound",[2]; Melanoma MALME-3M CL10002,2
same,"classification of cell line as Low(1), Medium(2), High(3) sensitivity to compound",[2]; Melanoma SK-MEL-28 CL10008,1
same,sensitivity classification Low(1)/Medium(2)/High(3),[2]; NSCLC NCI-H23(I) CL1001,2
same,sensitivity classification Low(1)/Medium(2)/High(3),[2]; NSCLC NCI-H522 CL1003,2
same,sensitivity classification Low(1)/Medium(2)/High(3),[2]; Ovarian IGROV1 CL6010,2
same,sensitivity classification Low(1)/Medium(2)/High(3),[2]; Ovarian OVCAR-3 CL6001,2
same,sensitivity classification Low(1)/Medium(2)/High(3),[2]; Ovarian OVCAR-4 CL6002,2
same,sensitivity classification Low(1)/Medium(2)/High(3),[2]; Ovarian OVCAR-8 CL6005,2
same,sensitivity classification Low(1)/Medium(2)/High(3),[2]; Ovarian SK-OV-3 CL6011,2
same,sensitivity classification Low(1)/Medium(2)/High(3),[2]; Prostate DU-145 CL11003,2
same,sensitivity classification Low(1)/Medium(2)/High(3),[2]; Prostate PC-3(I) CL11001,2
same,sensitivity classification Low(1)/Medium(2)/High(3),[2]; Renal A498 CL9013,2
same,sensitivity classification Low(1)/Medium(2)/High(3),[2]; Renal SN12C CL9008,2
same,sensitivity classification Low(1)/Medium(2)/High(3),[2]; Renal TK10 CL9024,1
same,sensitivity classification Low(1)/Medium(2)/High(3),[2]; Renal UO-31 CL9004,1
